Drawing on patent publication US9023851B2 (Merck Patent GmbH, priority 2010, dated 2015), this text covers IC50 for 23 molecules.

Assay type in all cases: biochemical
Assay [1] concerns the target T1, ZAP-70 (Homo sapiens, UniProt P43403).
T1 construct: purchased BPS Bioscience, CA, USA
T1 sequence (P43403 1-619): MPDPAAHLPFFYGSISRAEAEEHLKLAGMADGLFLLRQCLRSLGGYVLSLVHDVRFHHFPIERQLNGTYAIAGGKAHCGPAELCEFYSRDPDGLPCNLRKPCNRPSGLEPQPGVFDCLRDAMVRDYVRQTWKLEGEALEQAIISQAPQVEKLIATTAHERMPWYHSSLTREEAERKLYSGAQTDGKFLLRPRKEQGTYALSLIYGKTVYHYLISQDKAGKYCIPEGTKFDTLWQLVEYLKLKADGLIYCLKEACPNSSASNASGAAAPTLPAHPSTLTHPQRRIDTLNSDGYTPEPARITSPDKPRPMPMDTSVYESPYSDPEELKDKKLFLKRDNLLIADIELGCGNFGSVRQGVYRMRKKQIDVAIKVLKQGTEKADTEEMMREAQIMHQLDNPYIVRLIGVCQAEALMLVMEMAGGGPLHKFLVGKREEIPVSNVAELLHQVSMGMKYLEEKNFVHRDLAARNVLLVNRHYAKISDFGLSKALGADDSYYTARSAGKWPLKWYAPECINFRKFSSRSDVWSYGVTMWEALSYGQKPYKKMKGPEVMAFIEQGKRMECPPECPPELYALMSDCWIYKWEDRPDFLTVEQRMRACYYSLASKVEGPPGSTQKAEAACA
The assay can be described thus: Zap70 enzymatic assay (Caliper LifeSciences technology). The method, then:
(§1) Enzymatic Assays Using the Caliper LifeSciences Technology
(§2) The assays described here are performed on the Caliper Life Sciences LC3000 system This technology provides data on enzyme activity via measurement of the relative amounts of phosphorylated or unphosphorylated fluorescently labelled substrate peptide at the end of an enzymatic reaction. These different states of peptide are resolved by applying a potential difference across the sample. The presence of the charged phosphate group on the product (as opposed to the substrate) causes a different peptide mobility between the two peptides. This is visualized by excitation of the fluorescent label on the substrate and product peptides and represented as peaks within the analysis software.
(§3) In order to measure inhibitor activity of kinase inhibitors on this technology, a TTP Mosquito liquid handling instrument is used to place 0.25 ul of the appropriate concentration of inhibitor in 100% DMSO (for a dose response curve calculation) into each well of a 384-well plate. To this reaction components are added to a final volume of 25 ul. The table below indicates the sequences and concentrations for the assays described in this report. Standard components are 1 mM DTT (Sigma, D0632), 1 mM MgCl2 (Sigma, M1028), 100 mM HEPES pH 7.5 (Calbiochem, 391338), 0.015% Brij-35 (Sigma, B4184).
(§4) The reaction is incubated for 90 min at 25 C, and then stopped by the addition of 70 ul of Stop buffer (100 mM HEPES pH 7.5, 0.015% Brij-35, 10 mM EDTA (Sigma, E7889)).
(§5) The plate is read on a Caliper LC 3000 in an Off-Chip mobility shift assay format, on a 12-sipper chip. Unphosphorylated substrate and phosphorylated product peptide resolve as separate peaks allowing direct measurement of percentage of conversion of substrate to product. The percent conversion can be plotted against concentration of inhibitor to produce a sigmoidal dose response curve, from which an IC50 can be calculated using GeneData Condoseo or a similar product. Cellular activity assays

Assay [2] deals with T2, KDR (Homo sapiens, UniProt P35968).
T2 construct: purchased BPS Bioscience, CA, USA
T2 sequence (P35968 20-1356): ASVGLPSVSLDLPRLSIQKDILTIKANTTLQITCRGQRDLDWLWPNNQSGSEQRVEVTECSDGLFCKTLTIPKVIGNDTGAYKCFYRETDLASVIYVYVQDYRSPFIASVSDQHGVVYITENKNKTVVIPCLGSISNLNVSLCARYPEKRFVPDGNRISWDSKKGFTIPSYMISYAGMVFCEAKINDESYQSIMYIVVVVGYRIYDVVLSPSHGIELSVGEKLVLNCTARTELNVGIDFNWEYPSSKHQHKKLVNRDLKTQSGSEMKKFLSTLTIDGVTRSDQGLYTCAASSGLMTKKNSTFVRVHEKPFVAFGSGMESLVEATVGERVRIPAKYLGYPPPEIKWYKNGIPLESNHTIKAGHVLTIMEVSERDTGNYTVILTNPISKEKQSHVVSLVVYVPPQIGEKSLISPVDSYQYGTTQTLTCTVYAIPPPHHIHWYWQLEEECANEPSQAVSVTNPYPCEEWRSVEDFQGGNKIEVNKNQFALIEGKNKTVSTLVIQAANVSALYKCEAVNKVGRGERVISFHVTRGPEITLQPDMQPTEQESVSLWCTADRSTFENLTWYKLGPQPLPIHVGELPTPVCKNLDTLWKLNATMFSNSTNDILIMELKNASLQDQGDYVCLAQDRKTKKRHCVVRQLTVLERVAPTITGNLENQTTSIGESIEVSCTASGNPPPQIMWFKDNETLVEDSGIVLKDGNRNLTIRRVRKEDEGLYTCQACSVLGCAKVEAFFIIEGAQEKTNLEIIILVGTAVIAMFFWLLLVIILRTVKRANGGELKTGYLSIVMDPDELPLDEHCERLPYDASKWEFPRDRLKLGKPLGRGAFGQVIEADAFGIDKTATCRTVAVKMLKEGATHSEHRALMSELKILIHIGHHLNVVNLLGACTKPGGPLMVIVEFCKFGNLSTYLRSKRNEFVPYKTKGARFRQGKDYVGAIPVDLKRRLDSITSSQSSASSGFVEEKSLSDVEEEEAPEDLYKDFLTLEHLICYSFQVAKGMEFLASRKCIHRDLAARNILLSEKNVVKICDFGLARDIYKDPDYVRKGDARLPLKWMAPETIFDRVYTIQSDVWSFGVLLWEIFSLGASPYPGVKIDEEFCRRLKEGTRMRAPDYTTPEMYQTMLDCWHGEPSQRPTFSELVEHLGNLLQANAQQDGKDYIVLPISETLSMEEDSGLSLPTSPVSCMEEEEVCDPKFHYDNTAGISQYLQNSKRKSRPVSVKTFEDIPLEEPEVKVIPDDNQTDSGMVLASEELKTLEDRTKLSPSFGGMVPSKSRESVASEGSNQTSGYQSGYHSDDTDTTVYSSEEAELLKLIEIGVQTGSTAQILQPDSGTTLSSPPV
Kind of assay: KDR enzymatic assay (Caliper LifeSciences technology). The method, then: as §1, §2, §3, §4, §5

The target of assay [3] is T3, Syk (Homo sapiens, UniProt P43405).
T3 construct: purchased BPS Bioscience, CA, USA
The assay can be described thus: Syk enzyme assay (flash plate / Caliper mobility shift). The method, then:
The kinase assay is performed either as 384-well Flashplate assay (for e.g. Topcount measurement) or as 384-well Image-Flashplate assay (for LEADseeker measurement).
2.5 nM SYK, 400 nM Biotin-Aha-Aha-[…] and 10 μM ATP (spiked with 0.3 μCi 33P-ATP/well) are incubated in a total volume of 50 μl (60 mM Hepes, 10 mM MgCl2, 1.2 mM Dithiothreitol, 0.02% Brij35, 0.1% BSA, pH 7.5) with or without test compound for 1 hours at 30° C. The reaction is stopped with 25 μl 200 mM EDTA. After 30 Min at 30° C. the liquid is removed and each well washed thrice with 100 μl 0.9% sodium chloride solution. Non-specific reaction is determined in presence of 0.1 μM Staurosporine. Radioactivity is measured with Topcount (when using Flashplates) or with LEADseeker (when using Image-Flashplates) respectively. Results (e.g. IC50-values) are calculated with program tools provided by the IT-department (e.g. Symyx Assay Explorer, Genedata Screener).
as §1, §2, §3, §4, §5

In general, IC50 refers to the point on the concentration scale where inhibition reaches its midpoint. Take `CN1CCN(CCCNc2nccn3nc(Nc4cccc(C(F)(F)F)c4)nc23)CC1` [Example C43, N^843-(4-Methyl-piperazin-1-yl)-propyq-N^2-(3-trifluoromethyl-phenyl)-[1,2,4]triazolo[1,5-a]pyrazine-2,8-diamine]: the IC50 in assay [1] and in assay [2] was 3 to 50 µM throughout.

For `c1ccc(Nc2nc3c(NCCCN4CCOCC4)nccn3n2)cc1` [Example C51, N^8-(3-Morpholin-4-yl-propyl)-N^2-phenyl-[1,2,4]triazolo[1,5-a]pyrazine-2,8-diamine], the IC50 in assay [1] fell in the range of 0.3 to 3 µM; in assay [2] it was 3 to 50 µM.

Take `NCCNc1nccn2nc(Nc3cccc(C(F)(F)F)c3)nc12` [Example C41, N^8-(2-Amino-ethyl)-N^2-(3-trifluoromethyl-phenyl)-[1,2,4]triazolo[1,5-a]pyrazine-2,8-diamine]: the IC50 in assay [3], in assay [1] and in assay [2] was 3 to 50 µM in each case.

As for `c1ccc(Cn2ncc3ccc(Nc4nccn5nc(Nc6ccccc6)nc45)cc32)cc1` [Example C75, N^8-(1-Benzyl-1H-indazol-6-yl)-N^2-phenyl-[1,2,4]triazolo[1,5-a]pyrazine-2,8-diamine], in assay [1], the IC50 lay in the range of 3 to 50 µM.

As for `COc1cc(OC)cc(-c2nccn3nc(Nc4ccc5cnn(Cc6ccccc6)c5c4)nc23)c1` [Example C26, (1-Benzyl-1H-indazol-6-yl)-[8-(3,5-dimethoxy-phenyl)-[1,2,4]triazolo[1,5-a]pyrazin-2-yl]-amine], the IC50 in assay [3] and in assay [1] was 0.3 to 3 µM each time.

For `Cc1cc(C)cc(Nc2nccn3nc(Nc4cccc(C(F)(F)F)c4)nc23)c1` [Example C86, N^8-(3,5-Dimethyl-phenyl)-N^2-(3-trifluoromethyl-phenyl)-[1,2,4]triazolo[1,5-a]pyrazine-2,8-diamine], the IC50 in assay [1] is 3 to 50 µM.

For `c1ccc(Cn2ncc3ccc(Nc4nc5c(Nc6ccccc6)nccn5n4)cc32)cc1` [Example C85, N^2-(1-Benzyl-1H-indazol-6-yl)-N^8-phenyl-[1,2,4]triazolo[1,5-a]pyrazine-2,8-diamine], the IC50 in assay [1] fell in the range of 0.3 to 3 µM.

On to `COc1cc(Nc2nccn3nc(Nc4ccc5cnn(Cc6ccccc6)c5c4)nc23)cc(OC)c1` [Example C82, N^2-(1-Benzyl-1H-indazol-6-yl)-N^8-(3,5-dimethoxy-phenyl)-[1,2,4]triazolo[1,5-a]pyrazine-2,8-diamine], for which the IC50 in assay [1] lay in the range of 3 to 50 µM.

With `Cc1cc(C)cc(Nc2nccn3nc(Nc4ccc5cnn(Cc6ccccc6)c5c4)nc23)c1` [Example C81, N^2-(1-Benzyl-1H-indazol-6-yl)-N^8-(3,5-dimethyl-phenyl)-[1,2,4]triazolo[1,5-a]pyrazine-2,8-diamine], the IC50 in assay [3] and in assay [1] was 3 to 50 µM in each case.

`Cn1ccnc1Sc1ccc(Nc2nc3c(Nc4ccccc4)nccn3n2)cc1Cl` [Example C80, N^2-[3-Chloro-4-(1-methyl-1H-imidazol-2-ylsulfanyl)-phenyl]-N^8-phenyl-[1,2,4]triazolo[1,5-a]pyrazine-2,8-diamine]: the IC50 lay in the range of 3 to 50 µM in assay [3] and 0.3 to 3 µM in assay [1].

As for `c1ccc(Cn2ncc3ccc(Nc4nc5c(-c6cccnc6)nccn5n4)cc32)cc1` [Example C27, (1-Benzyl-1H-indazol-6-yl)-(8-pyridin-3-yl-[1,2,4]triazolo[1,5-a]pyrazin-2-yl)-amine], the IC50 in assay [3] fell in the range of 0.3 to 3 µM; in assay [1], 3 to 50 µM.

Turning to `FC(F)(F)c1cccc(Nc2nc3c(Nc4ccccc4)nccn3n2)c1` [Example C88, N^8-Phenyl-N^2-(3-trifluoromethyl-phenyl)-[1,2,4]triazolo[1,5-a]pyrazine-2,8-diamine], the IC50 in assay [1] lay within 3 to 50 µM.

As for `Cn1ccnc1Sc1ccc(Nc2nc3c(Cl)nccn3n2)cc1Cl` [Example B6, [3-Chloro-4-(1-methyl-1H-imidazol-2-ylsulfanyl)-phenyl]-(8-chloro-[1,2,4]triazolo[1,5-a]pyrazin-2-yl)-amine], the IC50 in assay [3] and in assay [1] was 3 to 50 µM in each case.

As for `CN1CCN(CCCNc2nccn3nc(Nc4ccccc4)nc23)CC1` [Example C52, N^8-[3-(4-Methyl-piperazin-1-yl)-propyl]-N^2-phenyl-[1,2,4]triazolo[1,5-a]pyrazine-2,8-diamine], the IC50 in assay [1] and in assay [2] was 3 to 50 µM throughout.

For the molecule `Clc1nccn2nc(Nc3ccccc3)nc12` [Example B5, 8-Chloro-[1,2,4]triazolo[1,5-a]pyrazin-2-yl-phenyl-amine], the IC50 in assay [3] and in assay [1] was 3 to 50 µM each time.

As for `COCCCNc1nccn2nc(Nc3cccc(C(F)(F)F)c3)nc12` [Example C44, N^8-(3-Methoxy-propyl)-N^2-(3-trifluoromethyl-phenyl)-[1,2,4]triazolo[1,5-a]pyrazine-2,8-diamine], the IC50 in assay [3] and in assay [1] was 3 to 50 µM each time.

Consider `O=C1Cc2cc(Nc3nc4c(-c5cnc6ccccc6c5)nccn4n3)ccc2N1` [Example C263, 5-(8-Quinolin-3-yl-[1,2,4]triazolo[1,5-a]pyrazin-2-ylamino)-1,3-dihydro-indol-2-one], for which the IC50 in assay [3] and in assay [1] was 3 to 50 µM each time.

On to `Cc1cc(C)cc(Nc2nccn3nc(Nc4ccc(Sc5nccn5C)c(Cl)c4)nc23)c1` [Example C77, N^2-[3-Chloro-4-(1-methyl-1H-imidazol-2-ylsulfanyl)-phenyl]-N^8-(3,5-dimethyl-phenyl)-[1,2,4]triazolo[1,5-a]pyrazine-2,8-diamine], for which the IC50 in assay [3] and in assay [1] was 3 to 50 µM in each case.

In the case of `Cc1cccc(Nc2nccn3nc(Nc4ccc5cnn(Cc6ccccc6)c5c4)nc23)c1` [Example C84, N^2-(1-Benzyl-1H-indazol-6-yl)-N^8-m-tolyl-[1,2,4]triazolo[1,5-a]pyrazine-2,8-diamine], in assay [1], the IC50 lay in the range of 3 to 50 µM.

`COc1cc(OC)cc(-c2nccn3nc(Nc4ccccc4)nc23)c1` [Example C18, [8-(3,5-Dimethoxy-phenyl)-[1,2,4]triazolo[1,5-a]pyrazin-2-yl]-phenyl-amine]: the figures for the IC50 in assay [3] and in assay [1] were under 0.3 µM and 3 to 50 µM, respectively.

As to `FC(F)(F)c1cccc(Nc2nccn3nc(Nc4ccccc4)nc23)c1` [Example C76, N^2-Phenyl-N^8-(3-trifluoromethyl-phenyl)-[1,2,4]triazolo[1,5-a]pyrazine-2,8-diamine], the IC50 in assay [3] and in assay [1] was 3 to 50 µM each time.

With `COc1cc(Nc2nccn3nc(Nc4ccc(Sc5nccn5C)c(Cl)c4)nc23)cc(OC)c1` [Example C78, N^2-[3-Chloro-4-(1-methyl-1H-imidazol-2-ylsulfanyl)-phenyl]-N^8-(3,5-dimethoxy-phenyl)-[1,2,4]triazolo[1,5-a]pyrazine-2,8-diamine], the IC50 in assay [3] and in assay [1] was 3 to 50 µM throughout.

For `Cc1cccc(Nc2nccn3nc(Nc4ccc(Sc5nccn5C)c(Cl)c4)nc23)c1` [Example C79, N^2-[3-Chloro-4-(1-methyl-1H-imidazol-2-ylsulfanyl)-phenyl]-N^8-m-tolyl-[1,2,4]triazolo[1,5-a]pyrazine-2,8-diamine], the IC50 in assay [3] is 3 to 50 µM; in assay [1], 0.3 to 3 µM.
